From US20220323425A1, “CO-POTENTIATORS FOR THERAPY OF CYSTIC FIBROSIS CAUSED BY MINIMAL FUNCTION CFTR MUTANTS” (THE REGENTS OF THE UNIVERSITY OF CALIFORNIA, priority 2019, published 2022)
Read-outs that look alike come from different tables or passages of the source.

What was measured:
Format in all cases: cell-based
[1] = target: T1, W1282X-CFTR (Homo sapiens, UniProt P13569); experiment: Structure-activity testing of co-potentiator analogs in FRT cells expressing W1282X-CFTR; details: for Relative Vmax (%)*: 100% Vmax corresponds to 20 μM ASP-11; for EC50: FRT cells expressing W1282X-CFTR
T1 construct: CFTR1281 (the truncation product generated by W1282X-CFTR); expressed in transfected cells
T1 sequence (P13569 1-1281 limits assumed): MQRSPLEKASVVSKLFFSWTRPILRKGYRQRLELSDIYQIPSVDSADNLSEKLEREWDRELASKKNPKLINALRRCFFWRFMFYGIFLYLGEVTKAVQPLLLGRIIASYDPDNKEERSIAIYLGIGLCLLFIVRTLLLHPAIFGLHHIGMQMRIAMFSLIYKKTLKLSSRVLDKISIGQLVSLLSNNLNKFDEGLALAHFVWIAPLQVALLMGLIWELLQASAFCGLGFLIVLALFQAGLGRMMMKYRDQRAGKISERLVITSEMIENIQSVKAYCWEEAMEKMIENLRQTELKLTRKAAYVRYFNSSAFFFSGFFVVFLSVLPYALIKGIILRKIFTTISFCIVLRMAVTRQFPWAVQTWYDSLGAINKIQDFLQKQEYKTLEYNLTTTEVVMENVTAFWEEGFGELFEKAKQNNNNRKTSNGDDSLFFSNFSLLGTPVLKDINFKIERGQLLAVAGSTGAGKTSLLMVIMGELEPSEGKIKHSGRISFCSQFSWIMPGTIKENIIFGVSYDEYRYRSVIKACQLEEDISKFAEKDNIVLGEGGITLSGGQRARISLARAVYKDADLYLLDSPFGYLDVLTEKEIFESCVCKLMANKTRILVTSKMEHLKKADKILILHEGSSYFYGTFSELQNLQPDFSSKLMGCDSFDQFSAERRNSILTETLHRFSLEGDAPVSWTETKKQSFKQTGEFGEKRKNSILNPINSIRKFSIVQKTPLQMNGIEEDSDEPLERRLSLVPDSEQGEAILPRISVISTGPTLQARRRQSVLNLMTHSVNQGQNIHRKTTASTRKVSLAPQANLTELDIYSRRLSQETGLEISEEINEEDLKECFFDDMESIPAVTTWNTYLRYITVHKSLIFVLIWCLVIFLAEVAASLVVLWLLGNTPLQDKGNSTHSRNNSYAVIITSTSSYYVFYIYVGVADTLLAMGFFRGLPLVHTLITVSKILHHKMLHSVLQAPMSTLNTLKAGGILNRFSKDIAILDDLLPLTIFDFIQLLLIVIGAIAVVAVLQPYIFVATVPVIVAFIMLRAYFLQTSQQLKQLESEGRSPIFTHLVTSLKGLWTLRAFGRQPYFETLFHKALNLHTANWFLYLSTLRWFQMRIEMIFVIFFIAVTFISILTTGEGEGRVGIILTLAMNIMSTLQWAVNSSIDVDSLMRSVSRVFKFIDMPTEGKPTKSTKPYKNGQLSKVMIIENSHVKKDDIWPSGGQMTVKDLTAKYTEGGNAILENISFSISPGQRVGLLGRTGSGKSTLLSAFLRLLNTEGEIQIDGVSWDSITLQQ
Experimental: To establish structure-activity relationships, 240 commercially available spiro[piperidine-4,1pyrido[3,4-b]indoles]analogs and 160 pyrazoloquinoline analogs were tested in FRT cells expressing W 1282X-CFTR. FIG. 5A summarizes the structural determinants for activity for the spiro[piperidine-4,1pyrido[3,4-b]indoles] reported in Table 1A (CP-Axxx designations).
High-throughput screening used a semi-automated screening platform (Beckman, Fullerton, Calif.) as described (Haggie, 2017). FRT cells expressing W1282X and YFP were plated in 96-well black-walled, clear-bottom tissue culture plates (Corning) at a density of 20,000 cells/well and grown for 24 h at 37° C. to ˜90% confluency. Cells were treated with 3 μM VX-809 for 24 hours. Cells were then washed twice with PBS, and incubated in 100 μl of PBS containing forskolin (10 μM), VX-770 (15 nM) and test compounds (25 μM) for 10 min prior to assay of CFTR activity. All plates contained wells with positive (5 μM VX-770+20 μM ASP-11) and negative (5 μM VX-770) controls. Assays were done using a BMG Labtech FLUOstar OMEGA plate reader (Cary, N.C.) over 12 s with initial fluorescence intensity recorded for 2 s prior to addition of 100 μl of NaI-substituted PBS (137 mM NaCl replaced with NaI). Initial iodide influx was computed from fluorescence intensity by single exponential regression. […]
(§1) GraphPad Prism software (GraphPad Inc., San Diego, Calif., USA) was used for statistical analysis. EC50 values were determined by non-linear regression to a single-site inhibition model. Statistical significance was determined using unpaired Student's t test, with P<0.05 considered significant.

[2] = target: N1303K-CFTR (Homo sapiens, UniProt P13569, N1303K); experiment: Short-circuit current in FRT cells expressing N1303K-CFTR; set-up: expressed in transfected cells; host or cells: Fischer rat thyroid (FRT) cells; details: for EC50 / Relative Vmax (%)*: Table 1B; for EC50: cell line not given; for Relative Vmax (%)*: footnote to * not given; for short-circuit current response when added after VX-770: 20 μM forskolin, 5 μM VX-770, 20 μM test potentiator
Sequence of N1303K-CFTR (P13569 whole entry N1303K): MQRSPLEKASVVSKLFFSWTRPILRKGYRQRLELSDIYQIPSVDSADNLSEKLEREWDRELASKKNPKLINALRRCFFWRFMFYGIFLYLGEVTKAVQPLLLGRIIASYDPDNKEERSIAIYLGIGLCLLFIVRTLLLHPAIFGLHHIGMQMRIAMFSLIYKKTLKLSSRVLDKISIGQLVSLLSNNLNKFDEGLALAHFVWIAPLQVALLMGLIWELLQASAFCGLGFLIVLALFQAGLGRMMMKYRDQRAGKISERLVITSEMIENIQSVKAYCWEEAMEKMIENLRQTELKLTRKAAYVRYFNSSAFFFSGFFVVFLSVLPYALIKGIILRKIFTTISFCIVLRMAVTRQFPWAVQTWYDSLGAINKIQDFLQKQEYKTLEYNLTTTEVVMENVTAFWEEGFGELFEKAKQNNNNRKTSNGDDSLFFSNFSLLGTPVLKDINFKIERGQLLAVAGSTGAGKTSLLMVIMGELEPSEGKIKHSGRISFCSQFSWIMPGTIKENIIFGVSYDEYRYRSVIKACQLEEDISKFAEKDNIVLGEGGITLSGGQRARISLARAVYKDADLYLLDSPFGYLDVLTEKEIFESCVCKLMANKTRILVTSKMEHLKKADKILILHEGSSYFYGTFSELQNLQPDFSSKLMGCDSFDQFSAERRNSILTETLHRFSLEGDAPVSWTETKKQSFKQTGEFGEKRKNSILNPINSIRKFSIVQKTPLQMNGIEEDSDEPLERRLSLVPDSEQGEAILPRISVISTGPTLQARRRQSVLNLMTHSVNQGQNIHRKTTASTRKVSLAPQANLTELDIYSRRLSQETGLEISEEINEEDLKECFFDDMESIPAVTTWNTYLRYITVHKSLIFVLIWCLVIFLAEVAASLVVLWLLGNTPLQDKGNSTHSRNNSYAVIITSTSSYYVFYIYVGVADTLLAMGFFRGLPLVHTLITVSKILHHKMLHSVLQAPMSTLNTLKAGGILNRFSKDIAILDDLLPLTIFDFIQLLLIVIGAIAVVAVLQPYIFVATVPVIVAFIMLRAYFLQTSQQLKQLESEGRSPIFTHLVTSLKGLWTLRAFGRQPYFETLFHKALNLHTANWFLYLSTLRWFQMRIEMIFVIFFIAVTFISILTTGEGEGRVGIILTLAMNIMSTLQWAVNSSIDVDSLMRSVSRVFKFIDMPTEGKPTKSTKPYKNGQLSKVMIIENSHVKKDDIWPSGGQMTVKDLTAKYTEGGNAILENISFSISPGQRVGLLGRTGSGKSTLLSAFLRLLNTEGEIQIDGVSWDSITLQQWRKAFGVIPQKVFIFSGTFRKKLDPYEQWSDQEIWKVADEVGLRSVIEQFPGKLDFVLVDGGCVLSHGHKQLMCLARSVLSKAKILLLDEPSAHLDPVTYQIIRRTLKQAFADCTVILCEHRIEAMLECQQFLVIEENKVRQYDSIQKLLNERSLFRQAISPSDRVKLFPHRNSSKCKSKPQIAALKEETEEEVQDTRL
Experimental: (§2) Short-circuit current was measured on cells cultured on permeable supports (Corning) as described (Haggie, 2017; Phuan, 2018). For FRT cells, the basolateral membrane was permeabilized with 250 μg/mL amphotericin B, and experiments were done using a HCO3^−-buffered system (in mM: 120 NaCl, 5 KCl, 1 MgCl2, 1 CaCl2), 5 Hepes, 25 NaHCO3, 10 glucose, pH 7.4) with a basolateral to apical chloride gradient (60 mM NaCl replaced by sodium gluconate in the apical solution). For human airway epithelial cells, symmetrical HCO3^−-buffered solutions (containing 120 mM NaCl) were used. Cells were equilibrated with 95% O2, 5% CO2 and maintained at 37° C. Hemichambers were connected to a DVC-1000 voltage clamp (World Precision Instruments Inc., Sarasota, Fla.) via Ag/AgCl electrodes and 3 M KCl agar bridges for recording of the short-circuit current.
as §1
Co-potentiator efficacy was initially determined by short-circuit current measurements in FRT cells expressing N1303K-CFTR in the presence of a transepithelial chloride gradient and with permeabilization of the basolateral cell membrane such that measured current directly reports CFTR channel activity. […] We previously defined potentiators as either class I compounds, including VX-770 and GLPG1837, or class II compounds such as the arylsulphonamide-pyrrolopyridine and spiro[piperidine-4,1-pyrido[3,4-b]indole] copotentiators that probably bind at distinct sites on CFTR. N1303K-CFTR expressing FRT cells treated with forskolin and GLPG1837 had similar 2i co-potentiator EC50 of 0.8±0.2 μM (FIG. 7B).

[3] = target: T2, Q1313X-CFTR (Homo sapiens, UniProt P13569); experiment: Short-circuit current in FRT cells expressing Q1313X-CFTR; details: 20 μM forskolin; for short-circuit current response when added after VX-770: 5 μM VX-770, 25 μM apigenin, others 20 μM
T2 construct: several truncated forms of CFTR resulting from premature termination codons (PTCs) located in NBD2; expressed in transfected cells; host or cells: FRT cells, pIRESpuro3 vector, puromycin-selected clonal lines
T2 sequence (P13569 1-1312 limits assumed): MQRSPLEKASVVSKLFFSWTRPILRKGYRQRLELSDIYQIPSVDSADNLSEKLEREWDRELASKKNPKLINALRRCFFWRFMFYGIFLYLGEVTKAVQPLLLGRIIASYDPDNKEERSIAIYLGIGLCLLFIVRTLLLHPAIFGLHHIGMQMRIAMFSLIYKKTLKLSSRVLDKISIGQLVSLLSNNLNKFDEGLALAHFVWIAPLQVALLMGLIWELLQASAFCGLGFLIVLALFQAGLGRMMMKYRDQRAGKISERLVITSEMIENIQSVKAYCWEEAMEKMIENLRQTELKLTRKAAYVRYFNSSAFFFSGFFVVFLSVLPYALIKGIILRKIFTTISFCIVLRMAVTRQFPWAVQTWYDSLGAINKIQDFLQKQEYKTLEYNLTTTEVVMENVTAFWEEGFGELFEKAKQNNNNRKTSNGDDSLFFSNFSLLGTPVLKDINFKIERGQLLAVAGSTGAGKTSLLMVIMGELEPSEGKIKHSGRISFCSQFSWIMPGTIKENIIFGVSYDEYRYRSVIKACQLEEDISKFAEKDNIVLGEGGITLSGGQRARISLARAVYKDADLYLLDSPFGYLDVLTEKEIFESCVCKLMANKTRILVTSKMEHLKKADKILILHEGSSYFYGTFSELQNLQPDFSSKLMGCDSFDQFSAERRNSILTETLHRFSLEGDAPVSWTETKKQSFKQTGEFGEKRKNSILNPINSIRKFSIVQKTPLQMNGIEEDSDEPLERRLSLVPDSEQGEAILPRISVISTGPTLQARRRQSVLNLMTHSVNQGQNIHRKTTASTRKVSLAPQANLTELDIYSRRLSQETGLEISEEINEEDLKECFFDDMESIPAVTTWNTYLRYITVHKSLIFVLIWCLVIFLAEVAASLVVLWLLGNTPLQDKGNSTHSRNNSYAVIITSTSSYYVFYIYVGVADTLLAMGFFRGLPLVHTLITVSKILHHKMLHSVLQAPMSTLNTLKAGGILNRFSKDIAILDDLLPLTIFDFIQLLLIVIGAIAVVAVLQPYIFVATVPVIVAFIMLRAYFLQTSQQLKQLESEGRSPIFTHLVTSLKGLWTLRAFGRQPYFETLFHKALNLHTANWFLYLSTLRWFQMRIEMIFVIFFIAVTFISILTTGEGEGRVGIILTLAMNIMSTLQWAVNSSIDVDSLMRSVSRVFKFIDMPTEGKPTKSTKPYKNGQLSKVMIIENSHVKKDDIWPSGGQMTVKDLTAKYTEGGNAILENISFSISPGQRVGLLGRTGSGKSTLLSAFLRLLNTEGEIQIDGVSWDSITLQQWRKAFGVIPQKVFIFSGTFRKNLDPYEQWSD
Experimental: as §2, §1

| Relative Vmax (%)* ([1]; Table 1A) [%] | EC50 ([1]; Table 1A, read-out: EC50 (μM))) [µM] | Relative Vmax (%)* ([1]; Table 2) [%] | EC50 ([1]; Table 2, read-out: EC50) [µM] | SMILES | further results |
| --- | --- | --- | --- | --- | --- |
|  |  | 3 | > 30 | COc1ccc2cc3c(N)nn(C(=O)c4ccc([N+](=O)[O-])c(C)c4)c3nc2c1 [Compound D025] |  |
|  |  | 21 | 3.4 | COc1ccc2nc3c(cc2c1)c(N)nn3C(=O)c1ccc([N+](=O)[O-])cc1Cl [Compound D138] |  |
| 6 | > 30 |  |  | COc1ccc2[nH]c3c(c2c1)CCNC31CCN(C(=O)Cc2ccccc2)CC1 [Compound A956] |  |
|  |  | 3 | > 30 | COc1ccc2cc3c(N)nn(C(=O)c4cc(OC)c(OC)c(OC)c4)c3nc2c1 [Compound D012] |  |
|  |  | 3 | > 30 | COc1ccc2cc3c(N)nn(C(=O)Cc4ccc([N+](=O)[O-])cc4)c3nc2c1 [Compound D086] |  |
|  |  | 11 | > 30 | COc1ccc2cc3c(N)nn(C(=O)c4ccc(Cl)c([N+](=O)[O-])c4)c3nc2c1 [Compound D036] |  |
|  |  | 92 | 2.4 | COc1ccc2cc3c(N)nn(C(=O)c4ccc(F)cc4Cl)c3nc2c1 [Compound D018] |  |
|  |  | 1 | > 30 | COc1ccc2cc3c(N)nn(C(=O)Cc4ccc([N+](=O)[O-])cc4)c3nc2c1 [Compound D035] |  |
|  |  | 11 | 18 | Cc1ccc2cc3c(N)nn(C(=O)c4ccc(F)cc4)c3nc2c1 [Compound D136] |  |
| 100 | 2.6 |  |  | COc1ccc2[nH]c3c(c2c1)CCNC31CCN(Cc2ccc(F)c(F)c2)CC1 [Compound A662] |  |
|  |  | 100 | 1.7 | COc1ccc2cc3c(N)nn(C(=O)c4ccc([N+](=O)[O-])cc4Cl)c3nc2c1 [Compound D038] |  |
|  |  | 1 | > 30 | COc1ccc2cc3c(N)nn(C(=O)c4ccncc4)c3nc2c1 [Compound D003] |  |
|  |  | 24 | 3.6 | COc1ccc2cc3c(N)nn(C(=O)c4ccc(F)cc4)c3nc2c1 [Compound D010] |  |

Further lines, the molecule ahead of its results:

| SMILES | Relative Vmax (%)* ([1]; Table 1A) [%] | EC50 ([1]; Table 1A, read-out: EC50 (μM))) [µM] | Relative Vmax (%)* ([1]; Table 2) [%] | EC50 ([1]; Table 2, read-out: EC50) [µM] | further results |
| --- | --- | --- | --- | --- | --- |
| c1ccc(CN2CCC3(CC2)NCCc2c3[nH]c3ccccc23)cc1 [Compound A357] | 31 | 16 |  |  |  |
| COc1ccc2[nH]c3c(c2c1)CCNC31CCN(Cc2ccc(F)c(F)c2F)CC1 [Compound 2g, 6′-Methoxy-1-(2,3,4-trifluorobenzyl)-2′,3′,4′,9′-tetrahydrospiro[piperidine-4,1′-pyrido[3,4-b]indole]] |  |  |  |  | EC50 [2]: 4.1 µM; Relative Vmax (%)* [2]: 100% |
| O=c1cc(-c2ccc(O)cc2)oc2cc(O)cc(O)c12 [apigenin] |  |  |  |  | short-circuit current response when added after VX-770 [3]: showed synergy; short-circuit current response when added after GLPG1837 ([3]; 20 μM GLPG1837): showed synergy |
| COc1ccc2[nH]c3c(c2c1)CCNC31CCN(Cc2ccc(F)c(Cl)c2F)CC1 [Compound 1j, 1-(3-Chloro-2,4-difluorobenzyl)-6′-methoxy-2′,3′,4′,9′-tetrahydrospiro[piperidine-4,1′-pyrido[3,4-b]indole]] |  |  |  |  | EC50 [2]: 4.5 µM; Relative Vmax (%)* [2]: 120% |
| COc1ccc2[nH]c3c(c2c1)CCNC31CCN(Cc2scnc2C)CC1 [Compound A666] | 91 | 5.1 |  |  |  |
| CCC(=O)N1CCC2(CC1)NCCc1c2[nH]c2ccc(OC)cc12 [Compound A350] | 7 | > 30 |  |  |  |
| COc1ccc2[nH]c3c(c2c1)CCNC31CCN(Cc2c(F)c(F)c(F)c(F)c2F)CC1 [Compound 2e, 6′-Methoxy-1-((perfluorophenyl)methyl)-2′,3′,4′,9′-tetrahydrospiro[piperidine-4,1′-pyrido[3,4-b]indole]] |  |  |  |  | EC50 [2]: 2.1 µM; Relative Vmax (%)* [2]: 134% |
| COc1cccc(CN2CCC3(CC2)NCCc2c3[nH]c3ccccc23)c1 [Compound A534] | 24 | 13 |  |  |  |
| COc1ccc2c3c([nH]c2c1)C1(CCN(Cc2ccc(F)cc2F)CC1)NCC3 [Compound 5d, 1-(2,4-Difluorobenzyl)-7′-methoxy-2′,3′,4′,9′-tetrahydrospiro[piperidine-4,1′-pyrido[3,4-b]indole]] |  |  |  |  | EC50 [2]: 2.4 µM; Relative Vmax (%)* [2]: 100% |
| CC(C)c1ccc(NC(=O)C(c2ccccc2)N(C)C(=O)Cc2c[nH]c3ccccc23)cc1 (centres unmarked) [Compound P2, N-methyl-N-[2-[[4-(1-methylethyl)phenyl]amino]-2-oxo-1-phenylethyl]-1H-indole-3-acetamide, reference compound] |  |  |  |  | short-circuit current response when added after VX-770 [3]: did not elevate current; short-circuit current response when added after VX-770 [2]: did not further increase current |
| O=C(c1ccccc1)N1CCC2(CC1)NCCc1c2[nH]c2ccccc12 [Compound A815] | −4 | > 30 |  |  |  |
| COc1ccc2[nH]c3c(c2c1)CCNC31CCN(C2CCCCC2)CC1 [Compound A714] | 18 | > 30 |  |  |  |
| COc1ccc2[nH]c3c(c2c1)CCNC31CCN(C)CC1 [Compound A764] | 6 | > 30 |  |  |  |
| COc1ccc2[nH]c3c(c2c1)CCNC31CCN(Cc2cc(F)c(F)c(F)c2)CC1 [Compound 2d, 6′-Methoxy-1-(3,4,5-trifluorobenzyl)-2′,3′,4′,9′-tetrahydrospiro[piperidine-4,1′-pyrido[3,4-b]indole]] |  |  |  |  | EC50 [2]: 2.6 µM; Relative Vmax (%)* [2]: 121% |
| Cc1cc(C)cc(N(Cc2ccc(Cl)cc2)S(=O)(=O)c2cccn3c(C)nnc23)c1 [W1282Xpot-C01, reference compound] |  |  |  |  | short-circuit current response when added after VX-770 [2]: activated N1303K-CFTR; activation by two Class II potentiators added together ([2]; W1282Xpot-C01 and ASP-11, 20 μM each, no Class I potentiator): little activation |
| Fc1ccc(CN2CCC3(CC2)NCCc2c3[nH]c3ccc(Cl)cc23)c(F)c1 [Compound 5c, 6′-Chloro-1-(2,4-difluorobenzyl)-2′,3′,4′,9′-tetrahydrospiro[piperidine-4,1′-pyrido[3,4-b]indole]] |  |  |  |  | EC50 [2]: 2.5 µM; Relative Vmax (%)* [2]: 89% |
| COc1ccc2[nH]c3c(c2c1)CCNC31CCN(S(C)(=O)=O)CC1 [Compound A145] | 7 | > 30 |  |  |  |
| COc1cccc(CN2CCC3(CC2)c2[nH]c4ccccc4c2CCN3C)c1 [Compound A600] | 4 | > 30 |  |  |  |
